Experimental data reported in ChEMBL document CHEMBL2429783, “Discovery of epigenetic regulator I-BET762: lead optimization to afford a clinical candidate inhibitor of the BET bromodomains” (J Med Chem, 2013).
pIC50: −log10 of the molar value. Values after ≈ are worked out from the molar mass of the structure shown.

Assays:
[1] = Half life in buffer at pH 2 by HPLC analysis; type: physicochemical
[2] = system: HepG2; experiment: Upregulation of human apoA1 level in human HepG2 cells after 16 to 20 hrs by luciferase reporter gene assay; type: functional
[3] = system: PBMC; experiment: cells; conditions: Homo sapiens, read-out: pIC50 (converted)
Description: Antiinflammatory activity against human PBMC cells assessed as LPS-induced IL-6 production by chemiluminescence assay

[4] = target: Bromodomain-containing protein 2 (Homo sapiens, UniProt P25440)
Description: Binding affinity to His6-tagged BRD2 (unknown origin) after 60 mins by fluorescence anisotropy binding Assay

[5] = target: Bromodomain-containing protein 3 (Homo sapiens, UniProt Q15059)
Description: Binding affinity to His6-tagged BRD3 (unknown origin) after 60 mins by fluorescence anisotropy binding Assay

[6] = physchem; conditions: FaSSIF, pH 6.5
Description: Solubility of the compound in FaSSIF at pH 6.5 after 16 hrs by HPLC analysis

[7] = system: Hepatocyte; conditions: rat, hepatocytes, 2 h
Description: Clearance in rat hepatocytes after 120 mins by LC/MS/MS analysis

[8] = system: Salmonella typhimurium; experiment: Genotoxicity in Salmonella typhimurium TA1537 by Ames test in presence of rat S9 mix; type: toxicity, organism-based; conditions: salmonella enterica subsp. enterica serovar typhimurium
[9] = system: Salmonella typhimurium; experiment: Genotoxicity in Salmonella typhimurium TA1535 by Ames test in presence of rat S9 mix; type: toxicity, organism-based; conditions: salmonella enterica subsp. enterica serovar typhimurium
[10] = Oral bioavailability in beagle dog at 3 mg/kg after 1 hr; type: ADME, organism-based, Canis lupus familiaris; conditions: in vivo
[11] = system: Hepatocyte; conditions: human, hepatocytes, 2 h
Description: Clearance in human hepatocytes after 120 mins by LC/MS/MS analysis

[12] = Fraction unbound in mouse blood at 1000 ng/ml by equilibrium dialysis method; type: ADME, tissue-based
[13] = in vivo; conditions: Balb/c, mouse, iv, 1 mg/kg
[14] = AUC (0 to infinity) in Balb/c mouse at 1 mg/kg, iv and 3 mg/kg, po after 1 hr; type: ADME, organism-based; conditions: plasma
[15] = Volume of distribution in CD rat at 1 mg/kg, iv and 3 mg/kg, po after 1 hr; type: ADME, organism-based; conditions: in vivo
[16] = Oral bioavailability in Balb/c mouse at 3 mg/kg after 1 hr; type: ADME, organism-based; conditions: in vivo
[17] = Terminal half life in CD rat at 1 mg/kg, iv after 1 hr; type: ADME, organism-based; design: dose 1 mg/kg, route intravenous; conditions: in vivo, read-out: beta t1/2 (converted)
[18] = AUC (0 to infinity) in CD rat at 1 mg/kg, iv and 3 mg/kg, po after 1 hr; type: ADME, organism-based; conditions: plasma
[19] = in vivo; conditions: cynomolgus monkey, iv, 2 mg/kg
[20] = system: Rattus norvegicus; experiment: Antiinflammatory activity against po dosed Sprague-Dawley rat immunoinflammatory model assessed as inhibition of KLH-induced ear swelling administered qd for 7 days measured 24 hrs post KLH challenge relative to control; type: functional, organism-based
[21] = system: Liver; conditions: mouse, microsomes, 0.5 h
Description: Clearance in mouse liver microsomes after 30 mins by LC/MS/MS analysis

[22] = Volume of distribution in cynomolgus monkey at 2 mg/kg, iv and 5 mg/kg, po after 1 hr; type: ADME, organism-based, Macaca fascicularis; conditions: in vivo
[23] = Fraction unbound in rat blood at 1000 ng/ml by equilibrium dialysis mehod; type: ADME, tissue-based
[24] = cynomolgus monkey, hepatocytes, 2 h
Description: Clearance in cynomolgus monkey hepatocytes after 120 mins by LC/MS/MS analysis

[25] = Fraction unbound in dog blood at 1000 ng/ml by equilibrium dialysis method; type: ADME, tissue-based, Canis lupus familiaris
[26] = Volume of distribution in Balb/c mouse at 1 mg/kg, iv and 3 mg/kg, po after 1 hr; type: ADME, organism-based; conditions: in vivo
[27] = system: Liver microsomes; conditions: human, 0.5 h
Description: Clearance in human liver microsomes after 30 mins by LC/MS/MS analysis

[28] = system: Hepatocyte; conditions: mouse, hepatocytes, 2 h
Description: Clearance in mouse hepatocytes after 120 mins by LC/MS/MS analysis

[29] = AUC (0 to infinity) in beagle dog at 1 mg/kg, iv and 3 mg/kg, po after 1 hr; type: ADME, organism-based, Canis lupus familiaris; conditions: plasma
[30] = Terminal half life in beagle dog at 1 mg/kg, iv after 1 hr; type: ADME, organism-based, Canis lupus familiaris; design: dose 1 mg/kg, route intravenous; conditions: in vivo, read-out: beta t1/2 (converted)
[31] = system: Salmonella typhimurium; experiment: Genotoxicity in Salmonella typhimurium TA100 by Ames test; type: toxicity, organism-based; conditions: salmonella enterica subsp. enterica serovar typhimurium
[32] = Terminal half life in cynomolgus monkey at 2 mg/kg, iv after 1 hr; type: ADME, organism-based, Macaca fascicularis; design: dose 2 mg/kg, route intravenous; conditions: in vivo, read-out: beta t1/2 (converted)
[33] = Fraction unbound in human blood at 1000 ng/ml by equilibrium dialysis method; type: ADME, tissue-based
[34] = AUC (0 to infinity) in cynomolgus monkey at 2 mg/kg, iv and 5 mg/kg, po after 1 hr; type: ADME, organism-based, Macaca fascicularis; conditions: plasma
[35] = in vivo; conditions: beagle, dog, iv, 1 mg/kg
[36] = system: Salmonella typhimurium; experiment: Genotoxicity in Salmonella typhimurium TA98 by Ames test in presence of rat S9 mix; type: toxicity, organism-based; conditions: salmonella enterica subsp. enterica serovar typhimurium
[37] = system: Salmonella typhimurium; experiment: Genotoxicity in Salmonella typhimurium TA98 by Ames test; type: toxicity, organism-based; conditions: salmonella enterica subsp. enterica serovar typhimurium
[38] = dog, hepatocytes, 2 h
Description: Clearance in dog hepatocytes after 120 mins by LC/MS/MS analysis

[39] = system: Liver; conditions: dog, microsomes, 0.5 h
Description: Clearance in dog liver microsomes after 30 mins by LC/MS/MS analysis

[40] = Terminal half life in Balb/c mouse at 1 mg/kg, iv after 1 hr; type: ADME, organism-based; design: dose 1 mg/kg, route intravenous; conditions: in vivo, read-out: beta t1/2 (converted)
[41] = system: Salmonella typhimurium; experiment: Genotoxicity in Salmonella typhimurium TA100 by Ames test in presence of rat S9 mix; type: toxicity, organism-based; conditions: salmonella enterica subsp. enterica serovar typhimurium
[42] = Volume of distribution in beagle dog at 1 mg/kg, iv and 3 mg/kg, po after 1 hr; type: ADME, organism-based, Canis lupus familiaris; conditions: in vivo
[43] = system: Liver microsomes; conditions: rat, 0.5 h
Description: Clearance in rat liver microsomes after 30 mins by LC/MS/MS analysis

[44] = cynomolgus monkey, microsomes, 0.5 h
Description: Clearance in cynomolgus monkey liver microsomes after 30 mins by LC/MS/MS analysis

[45] = Oral bioavailability in CD rat at 3 mg/kg after 1 hr; type: ADME, organism-based; conditions: in vivo
[46] = in vivo; conditions: CD, rat, iv, 1 mg/kg
[47] = Oral bioavailability in cynomolgus monkey at 5 mg/kg after 1 hr; type: ADME, organism-based, Macaca fascicularis; conditions: in vivo
[48] = system: Salmonella typhimurium; experiment: Genotoxicity in Salmonella typhimurium TA1535 by Ames test; type: toxicity, organism-based; conditions: salmonella enterica subsp. enterica serovar typhimurium
[49] = system: Salmonella typhimurium; experiment: Genotoxicity in Salmonella typhimurium TA1537 by Ames test; type: toxicity, organism-based; conditions: salmonella enterica subsp. enterica serovar typhimurium

Chain of Bromodomain-containing protein 3 (Q15059 whole entry): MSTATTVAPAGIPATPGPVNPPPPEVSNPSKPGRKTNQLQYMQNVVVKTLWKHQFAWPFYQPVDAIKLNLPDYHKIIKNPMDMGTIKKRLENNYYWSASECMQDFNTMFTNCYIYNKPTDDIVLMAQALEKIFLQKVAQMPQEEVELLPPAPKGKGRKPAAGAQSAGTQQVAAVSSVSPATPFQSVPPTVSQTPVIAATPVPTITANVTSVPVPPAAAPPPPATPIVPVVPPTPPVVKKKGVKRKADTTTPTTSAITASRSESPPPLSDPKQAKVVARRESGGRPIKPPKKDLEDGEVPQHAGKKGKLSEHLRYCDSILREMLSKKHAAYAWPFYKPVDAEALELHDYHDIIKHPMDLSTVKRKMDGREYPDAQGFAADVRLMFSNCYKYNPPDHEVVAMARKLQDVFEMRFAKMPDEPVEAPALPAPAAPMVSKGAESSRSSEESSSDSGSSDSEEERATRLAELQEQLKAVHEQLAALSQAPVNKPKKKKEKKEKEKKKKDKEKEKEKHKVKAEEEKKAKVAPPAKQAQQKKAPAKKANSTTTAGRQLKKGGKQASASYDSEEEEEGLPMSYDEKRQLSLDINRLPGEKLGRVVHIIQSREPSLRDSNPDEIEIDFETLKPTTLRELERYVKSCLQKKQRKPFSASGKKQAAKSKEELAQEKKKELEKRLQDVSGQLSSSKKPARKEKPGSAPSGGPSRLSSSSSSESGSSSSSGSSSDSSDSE
Chain of Bromodomain-containing protein 2 (P25440 whole entry): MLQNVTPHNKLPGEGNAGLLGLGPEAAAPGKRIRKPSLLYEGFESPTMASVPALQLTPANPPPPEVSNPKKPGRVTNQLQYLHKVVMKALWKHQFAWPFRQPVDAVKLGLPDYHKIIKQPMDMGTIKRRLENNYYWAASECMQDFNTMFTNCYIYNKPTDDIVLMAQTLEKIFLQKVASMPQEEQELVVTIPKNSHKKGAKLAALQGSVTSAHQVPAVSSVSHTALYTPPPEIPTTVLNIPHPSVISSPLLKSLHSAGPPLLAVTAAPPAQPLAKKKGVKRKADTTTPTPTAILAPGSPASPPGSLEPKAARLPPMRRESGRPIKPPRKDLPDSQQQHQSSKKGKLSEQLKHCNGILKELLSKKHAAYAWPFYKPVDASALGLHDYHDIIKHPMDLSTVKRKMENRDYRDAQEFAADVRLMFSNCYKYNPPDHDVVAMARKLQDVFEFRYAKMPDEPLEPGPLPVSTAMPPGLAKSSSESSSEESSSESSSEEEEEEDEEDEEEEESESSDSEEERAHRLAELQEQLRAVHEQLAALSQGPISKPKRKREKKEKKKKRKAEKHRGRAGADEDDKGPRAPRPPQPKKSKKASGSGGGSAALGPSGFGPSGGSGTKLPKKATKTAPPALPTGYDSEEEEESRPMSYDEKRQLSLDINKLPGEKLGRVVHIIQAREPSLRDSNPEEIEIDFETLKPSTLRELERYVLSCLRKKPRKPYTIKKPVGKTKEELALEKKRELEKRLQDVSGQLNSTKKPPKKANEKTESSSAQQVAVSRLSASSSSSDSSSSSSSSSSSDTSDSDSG

Cc1nnc2n1-c1ccccc1C(c1ccccc1)=NC2NC(=O)OCc1ccccc1 (centres undefined)
half-life [1]: 34.8 min | EC170 [2]: 0.22 µM | IC50 [3]: 158 nM

COc1cccc(C2=NC(NC(=O)OCc3ccccc3)c3nnc(C)n3-c3ccccc32)c1 (centres undefined)
pIC50 [4]: 5.50 | IC50 [3]: 501 nM

Cc1nnc2n1-c1ccccc1C(c1ccccc1)=NC2NC(=O)NCc1ccccc1 (centres undefined)
pIC50 [5]: 6.10 | pIC50 [4]: 5.70 | IC50 [3]: 398 nM

Cc1ccc2c(c1)-n1c(C)nnc1C(NC(=O)OCc1ccccc1)N=C2c1ccccc1 (centres undefined)
pIC50 [5]: 5.90 | pIC50 [4]: 5.60 | IC50 [3]: 631 nM

CCOC(=O)NC1N=C(c2ccc(Cl)cc2)c2ccccc2-n2c(C)nnc21 (centres undefined)
half-life [1]: 45 min | pIC50 [5]: 5.90 | pIC50 [4]: 5.60

Cc1nnc2n1-c1ccccc1C(c1ccccc1)=NC2CC(=O)NCc1ccccc1 (centres undefined)
half-life [1]: > 120 min | pIC50 [5]: 5.70 | pIC50 [4]: 5.60 | solubility at 16 h [6]: 1 µg/mL (≈ 2.37 µM) | IC50 [3]: 5010 nM

CCCCOC(=O)C[C@@H]1N=C(c2ccc(Cl)cc2)c2cc(OC)ccc2-n2c(C)nnc21
solubility at 16 h [6]: 104 µg/mL (≈ 230 µM)

COc1ccc2c(c1)C(c1ccc(Cl)cc1)=N[C@@H](CC(=O)Nc1ccc(F)cc1)c1nnc(C)n1-2
solubility at 16 h [6]: 105 µg/mL (≈ 214 µM) | IC50 [3]: 2000 nM

COc1ccccc1C1=NC(NC(=O)OCc2ccccc2)c2nnc(C)n2-c2ccccc21 (centres undefined)
pIC50 [4]: 5.00 | IC50 [3]: 10000 nM

Cc1nnc2n1-c1ccccc1C(c1ccccc1)=NC2NC(=O)OCc1ccc(F)cc1 (centres undefined)
half-life [1]: 19.8 min | pIC50 [5]: 6.00 | pIC50 [4]: 5.70 | IC50 [3]: 316 nM

Cc1nnc2n1-c1ccccc1C(c1ccccc1)=NC2NS(=O)(=O)Cc1ccccc1 (centres undefined)
pIC50 [4]: 4.50 | IC50 [3]: 15800 nM

COc1ccc2c(c1)C(c1ccc(Cl)cc1)=N[C@@H](CC(=O)NCC1CC1)c1nnc(C)n1-2
solubility at 16 h [6]: 111 µg/mL (≈ 247 µM)

COc1ccc2c(c1)C(c1ccc(Cl)cc1)=N[C@@H](CC(=O)Nc1cccnc1)c1nnc(C)n1-2
solubility at 16 h [6]: 95 µg/mL (≈ 201 µM)

Cc1nnc2n1-c1ccc(Cl)cc1C(c1ccccc1)=NC2NC(=O)OCc1ccccc1 (centres undefined)
pIC50 [5]: 5.80 | pIC50 [4]: 5.50 | IC50 [3]: 631 nM

CCOC(=O)N[C@@H]1N=C(c2ccccc2)c2ccccc2-n2c(C)nnc21
half-life [1]: 13.8 min | IC50 [3]: 200 nM

COC(=O)C[C@@H]1N=C(c2ccc(Cl)cc2)c2cc(OC)ccc2-n2c(C)nnc21
solubility at 16 h [6]: 115 µg/mL (≈ 280 µM) | IC50 [3]: 126 nM

COc1ccc2c(c1)C(c1ccc(Cl)cc1)=N[C@@H](CC(=O)O)c1nnc(C)n1-2
solubility at 16 h [6]: 113 µg/mL (≈ 285 µM) | IC50 [3]: > 100000 nM

Cc1nnc2n1-c1ccccc1C(c1ccccc1)=NC2NC(=O)CCc1ccccc1 (centres undefined)
pIC50 [5]: 5.50 | pIC50 [4]: 4.80

Cc1nnc2n1-c1ccccc1C(c1ccccc1)=NC2NC(=O)Oc1cccc(F)c1 (centres undefined)
pIC50 [5]: 5.90 | pIC50 [4]: 5.50

COc1ccc(C2=NC(NC(=O)OCc3ccccc3)c3nnc(C)n3-c3ccccc32)cc1 (centres undefined)
pIC50 [5]: 6.00 | pIC50 [4]: 5.70 | IC50 [3]: 316 nM

CCNC(=O)C[C@@H]1N=C(c2ccc(Cl)cc2)c2ccc(OC)cc2-n2c(C)nnc21
IC50 [3]: 631 nM

CCNC(=O)C[C@@H]1N=C(c2ccc(Cl)cc2)c2cc(OC)ccc2-n2c(C)nnc21 [MOLIBRESIB]
CLH [7]: < 0.86 mL/min/g | Activity [8]: Non-toxic | Activity [9]: Non-toxic | bioavailability [10]: 44% | CLH [11]: < 0.86 mL/min/g | fraction unbound at 1000 ng/ml [12]: 0.21 | clearance at 1 h [13]: 75 mL/min/kg | AUC(0-inf) [14]: 468 ng·h/mL | Vd [15]: 1.8 L/kg | bioavailability [16]: 61% | half-life [17]: 30 min | AUC(0-inf) [18]: 201 ng·h/mL | clearance at 1 h [19]: 14 mL/min/kg | Activity [20]: Dose-dependent effect | CLH [21]: < 0.53 mL/min/g | Vd [22]: 1.5 L/kg | fraction unbound at 1000 ng/ml [23]: 0.18 | CLH [24]: < 0.085 mL/min/g | fraction unbound at 1000 ng/ml [25]: 0.24 | Vd [26]: 6.5 L/kg | CLH [27]: < 0.53 mL/min/g | CLH [28]: < 0.86 mL/min/g | AUC(0-inf) [29]: 4740 ng·h/mL | half-life [30]: 354 min | Activity [31]: Non-toxic | half-life [32]: 90 min | fraction unbound at 1000 ng/ml [33]: 0.19 | AUC(0-inf) [34]: 3340 ng·h/mL | clearance at 1 h [35]: 5 mL/min/kg | Activity [36]: Non-toxic | Activity [37]: Non-toxic | CLH [38]: < 1.7 mL/min/g | CLH [39]: 0.69 mL/min/g | half-life [40]: 90 min | Activity [41]: Non-toxic | Vd [42]: 1.8 L/kg | CLH [43]: 1.45 mL/min/g | CLH [44]: 0.2 mL/min/g | IC50 [3]: 316 nM | bioavailability [45]: 27% | clearance at 1 h [46]: 63 mL/min/kg | bioavailability [47]: 52% | Activity [48]: Non-toxic | Activity [49]: Non-toxic

CCNC(=O)C[C@@H]1N=C(c2cccc(F)c2)c2cc(OC)ccc2-n2c(C)nnc21
solubility at 16 h [6]: 116 µg/mL (≈ 285 µM)

CCOC(=O)NC1N=C(c2ccccc2)c2ccccc2-n2c(C)nnc21 (centres undefined)
half-life [1]: 33.6 min

COc1ccc2c(c1)C(c1ccc(Cl)cc1)=N[C@@H](CC(=O)Nc1ccccn1)c1nnc(C)n1-2
solubility at 16 h [6]: 115 µg/mL (≈ 243 µM) | IC50 [3]: 316 nM

Cc1nnc2n1-c1ccc([N+](=O)[O-])cc1C(c1ccccc1)=NC2NC(=O)OCc1ccccc1 (centres undefined)
pIC50 [4]: 4.90 | IC50 [3]: 2000 nM

COc1ccc2c(c1)C(c1ccccc1)=NC(NC(=O)OCc1ccccc1)c1nnc(C)n1-2 (centres undefined)
pIC50 [5]: 6.10 | pIC50 [4]: 6.10 | IC50 [3]: 126 nM

Cc1ccc(C2=NC(NC(=O)OCc3ccccc3)c3nnc(C)n3-c3ccccc32)cc1 (centres undefined)
pIC50 [5]: 6.00 | pIC50 [4]: 5.80
